Measured values: BigSolDB 2.1

O=C(O)c1ccccc1Nc1ccccc1
solubility (mole fraction)
Details	in ethanol	in methanol	in tert-butanol
283.15 K	0.0101	0.00519	–
285.65 K	0.0107	0.00556	–
288.15 K	0.0112	0.00606	–
290.65 K	0.0112	0.00653	–
293.15 K	0.0123	0.00701	–
295.65 K	0.0131	0.0073	–
298.15 K	0.0136	0.00796	0.0189
300.65 K	0.0144	0.00837	0.02
303.15 K	0.0154	0.00883	0.0225
305.65 K	0.0163	0.00916	0.0256
308.15 K	0.0175	0.00971	0.0279
310.65 K	0.0187	0.0103	0.0298
313.15 K	0.02	0.0117	0.0319
315.65 K	0.0221	0.0134	0.0353
318.15 K	0.0242	0.0156	0.0389
